Active and inactive are the calls of the source. The rule behind the calls is not given here.
Key:
[1] = biological target: Epithelial discoidin domain-containing receptor 1 (Homo sapiens, UniProt Q08345); experiment: Inhibition of DDR1 at compound concentration of 10.0 uM using the ScanMax (DiscoverX)
[2] = biological target: T1, 5-hydroxytryptamine receptor 2B (Homo sapiens, UniProt P41595); experiment: GPCRScan assay: inhibition of 5-HT2B; parameters: radioligand conc. used [nm] 1.0 – 2.0, parental cells stable HEK
[3] = biological target: 5-hydroxytryptamine receptor 2C (Homo sapiens, UniProt P28335); experiment: GPCRScan assay: inhibition of 5-HT2C; parameters: radioligand conc. used [nm] 1.0 – 2.5, parental cells HEK T
[4] = biological target: D(2) dopamine receptor (Homo sapiens, UniProt P14416); experiment: GPCRScan assay: inhibition of D2; parameters: radioligand conc. used [nm] 0.4 – 1.0, parental cells stable fibroblast
[5] = biological target: Sodium-dependent noradrenaline transporter (Homo sapiens, UniProt P23975); experiment: GPCRScan assay: inhibition of NET; parameters: radioligand conc. used [nm] 1.3 – 5.0, parental cells stable HEK
[6] = biological target: Mu-type opioid receptor (Homo sapiens, UniProt P35372); experiment: GPCRScan assay: inhibition of MOR; parameters: radioligand conc. used [nm] 1.0 – 2.0, parental cells stable HEK
[7] = biological target: Delta-type opioid receptor (Homo sapiens, UniProt P41143); experiment: GPCRScan assay: inhibition of DOR; parameters: radioligand conc. used [nm] 1.0 – 2.0, parental cells stable HEK
[8] = biological target: T2, Tyrosine-protein kinase receptor Tie-1 (Homo sapiens, UniProt P35590); experiment: NanoBRET assay (SGC Frankfurt) with TIE1
[9] = biological target: T3, Angiopoietin-1 receptor (Homo sapiens, UniProt Q02763); experiment: KINOMEScan (DiscoveRx Corp) with TEK
[10] = biological target: Serine/threonine-protein kinase 10 (Homo sapiens, UniProt O94804); experiment: NanoBRET assay (SGC Frankfurt) with STK10
[11] = biological target: Ephrin type-A receptor 1 (Homo sapiens) (UniProt P21709)
[12] = biological target: Serine/threonine-protein kinase/endoribonuclease IRE1 (Homo sapiens) (UniProt O75460)
[13] = biological target: Beta-adrenergic receptor kinase 1 (Homo sapiens) (UniProt P25098)
[14] = system: Mast/stem cell growth factor receptor Kit (Homo sapiens), P10721 [V559D,T670I]
[15] = biological target: Serine/threonine-protein kinase PAK 5 (Homo sapiens) (UniProt Q9P286)
[16] = biological target: Cyclin-dependent kinase 16 (Homo sapiens) (UniProt Q00536)
[17] = biological target: Phosphatidylinositol 3-kinase C2 domain-containing subunit gamma (Homo sapiens) (UniProt O75747)
[18] = system: Phosphatidylinositol 4,5-bisphosphate 3-kinase catalytic subunit alpha isoform (Homo sapiens), P42336 [E542K]
[19] = biological target: Ribosomal protein S6 kinase alpha-1 (Homo sapiens) (UniProt Q15418)
[20] = biological target: T2, Tyrosine-protein kinase receptor Tie-1; conditions: Compound concentration 1000.0 nM
[21] = biological target: Mitogen-activated protein kinase kinase kinase 19 (Homo sapiens) (UniProt Q56UN5)
[22] = biological target: T1, 5-hydroxytryptamine receptor 2B; conditions: Compound concentration 10.0 uM
[23] = biological target: 5-hydroxytryptamine receptor 6 (Homo sapiens) (UniProt P50406); conditions: Compound concentration 10.0 uM
[24] = biological target: D(1B) dopamine receptor (Homo sapiens) (UniProt P21918); conditions: Compound concentration 10.0 uM
[25] = biological target: GABA-A receptor; anion channel (Rattus norvegicus) (UniProt O09028+P15431+P18506+P18508+P19969+P20236+P23574+P23576+P28471+P28473+P30191+P62813+P63079+P63138+Q91ZM7+Q9ES14); conditions: Compound concentration 10.0 uM
[26] = biological target: Beta-3 adrenergic receptor (Homo sapiens, UniProt P13945); experiment: GPCRScan assay: inhibition of Beta3; parameters: radioligand conc. used [nm] 0.2 – 0.5, parental cells HEK Flp-In
[27] = biological target: T3, Angiopoietin-1 receptor; experiment: Bayer in-house kinase assay with TEK
[28] = biological target: Vascular endothelial growth factor receptor 2 (Homo sapiens, UniProt P35968); experiment: KINOMEScan (DiscoveRx Corp) with KDR
[29] = biological target: Fibroblast growth factor receptor 1 (Homo sapiens, UniProt P11362); experiment: Bayer in-house kinase assay with FGFR1
[30] = biological target: Platelet-derived growth factor receptor beta (Homo sapiens, UniProt P09619); experiment: Bayer in-house kinase assay with PDGFRB
[31] = biological target: Vascular endothelial growth factor receptor 3 (Homo sapiens, UniProt P35916); experiment: Bayer in-house kinase assay with FLT4
[32] = biological target: Fibroblast growth factor receptor 3 (Homo sapiens, UniProt P22607); experiment: Bayer in-house kinase assay with […]
[33] = biological target: D(3) dopamine receptor (Homo sapiens) (UniProt P35462); conditions: Compound concentration 10.0 uM
[34] = biological target: Histamine H1 receptor (Homo sapiens) (UniProt P35367); conditions: Compound concentration 10.0 uM
[35] = biological target: Histamine H4 receptor (Homo sapiens) (UniProt Q9H3N8); conditions: Compound concentration 10.0 uM
[36] = Compound concentration 1000.0 nM
[37] = Compound concentration 100.0 nM

T2 sequence (P35590 whole entry): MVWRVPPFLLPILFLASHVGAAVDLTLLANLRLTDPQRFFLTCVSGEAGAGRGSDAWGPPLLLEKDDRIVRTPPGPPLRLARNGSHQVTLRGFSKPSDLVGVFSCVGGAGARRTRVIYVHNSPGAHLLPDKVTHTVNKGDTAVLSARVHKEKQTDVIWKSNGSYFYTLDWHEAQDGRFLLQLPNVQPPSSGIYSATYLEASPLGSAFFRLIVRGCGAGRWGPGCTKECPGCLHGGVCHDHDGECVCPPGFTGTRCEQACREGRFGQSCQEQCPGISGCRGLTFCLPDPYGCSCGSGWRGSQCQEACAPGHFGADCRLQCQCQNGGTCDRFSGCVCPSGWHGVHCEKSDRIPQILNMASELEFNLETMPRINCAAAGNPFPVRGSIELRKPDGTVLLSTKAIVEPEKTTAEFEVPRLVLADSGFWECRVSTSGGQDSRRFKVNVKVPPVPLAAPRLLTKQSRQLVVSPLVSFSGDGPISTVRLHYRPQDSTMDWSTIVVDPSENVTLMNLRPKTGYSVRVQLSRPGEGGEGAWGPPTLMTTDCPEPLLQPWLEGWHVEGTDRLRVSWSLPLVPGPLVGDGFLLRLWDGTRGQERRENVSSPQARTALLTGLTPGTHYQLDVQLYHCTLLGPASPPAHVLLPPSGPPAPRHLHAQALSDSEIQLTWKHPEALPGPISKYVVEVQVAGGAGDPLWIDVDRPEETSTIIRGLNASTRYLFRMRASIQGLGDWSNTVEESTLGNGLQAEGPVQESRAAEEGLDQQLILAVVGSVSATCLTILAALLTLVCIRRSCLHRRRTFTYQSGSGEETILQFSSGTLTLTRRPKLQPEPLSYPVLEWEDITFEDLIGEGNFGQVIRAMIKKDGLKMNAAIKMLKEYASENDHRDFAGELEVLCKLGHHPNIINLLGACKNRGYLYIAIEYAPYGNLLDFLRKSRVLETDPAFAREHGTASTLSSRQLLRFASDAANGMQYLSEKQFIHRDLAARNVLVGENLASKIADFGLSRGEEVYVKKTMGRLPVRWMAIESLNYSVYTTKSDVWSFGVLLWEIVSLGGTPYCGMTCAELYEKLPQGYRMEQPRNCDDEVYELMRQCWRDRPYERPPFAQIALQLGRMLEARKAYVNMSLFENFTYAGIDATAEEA
T1 sequence (P41595 whole entry): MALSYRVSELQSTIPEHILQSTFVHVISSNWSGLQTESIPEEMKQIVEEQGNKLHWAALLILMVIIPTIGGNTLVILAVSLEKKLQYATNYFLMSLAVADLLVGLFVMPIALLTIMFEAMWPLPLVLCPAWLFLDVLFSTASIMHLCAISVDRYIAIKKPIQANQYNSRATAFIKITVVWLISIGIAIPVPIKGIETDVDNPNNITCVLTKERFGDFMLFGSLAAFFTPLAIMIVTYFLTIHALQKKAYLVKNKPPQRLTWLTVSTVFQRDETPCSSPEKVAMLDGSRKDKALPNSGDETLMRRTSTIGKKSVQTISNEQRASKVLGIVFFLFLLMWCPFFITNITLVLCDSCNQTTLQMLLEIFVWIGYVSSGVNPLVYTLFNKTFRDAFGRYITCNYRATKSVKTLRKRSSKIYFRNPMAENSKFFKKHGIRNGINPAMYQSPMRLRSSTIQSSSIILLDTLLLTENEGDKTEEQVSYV
Chain of Beta-3 adrenergic receptor (P13945 whole entry): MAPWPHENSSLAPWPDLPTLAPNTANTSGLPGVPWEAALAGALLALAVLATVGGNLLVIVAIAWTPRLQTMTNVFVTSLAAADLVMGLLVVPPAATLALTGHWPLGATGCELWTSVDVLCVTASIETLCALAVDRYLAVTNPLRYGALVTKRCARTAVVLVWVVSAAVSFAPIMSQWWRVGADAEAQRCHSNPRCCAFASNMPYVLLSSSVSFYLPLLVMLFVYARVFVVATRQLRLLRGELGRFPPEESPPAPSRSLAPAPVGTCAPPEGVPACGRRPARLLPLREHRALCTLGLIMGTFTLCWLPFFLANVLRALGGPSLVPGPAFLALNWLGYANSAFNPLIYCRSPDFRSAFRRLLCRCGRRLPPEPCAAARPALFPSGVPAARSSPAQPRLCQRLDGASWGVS
Chain of Cyclin-dependent kinase 16 (Homo sapiens) (Q00536 whole entry, the tested form may be a part): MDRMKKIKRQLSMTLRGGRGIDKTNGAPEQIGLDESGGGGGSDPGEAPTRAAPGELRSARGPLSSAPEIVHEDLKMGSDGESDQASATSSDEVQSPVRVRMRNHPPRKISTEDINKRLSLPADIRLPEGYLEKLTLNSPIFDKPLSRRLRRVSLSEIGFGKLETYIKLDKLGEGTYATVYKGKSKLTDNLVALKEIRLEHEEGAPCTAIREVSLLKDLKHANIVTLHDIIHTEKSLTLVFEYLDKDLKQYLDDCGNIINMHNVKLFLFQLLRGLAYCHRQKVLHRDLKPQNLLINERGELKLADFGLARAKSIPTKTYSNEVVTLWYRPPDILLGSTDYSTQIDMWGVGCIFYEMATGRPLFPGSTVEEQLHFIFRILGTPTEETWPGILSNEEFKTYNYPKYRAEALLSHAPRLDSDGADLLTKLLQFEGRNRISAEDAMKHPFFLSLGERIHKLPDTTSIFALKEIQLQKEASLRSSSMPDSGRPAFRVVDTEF
Chain of Beta-adrenergic receptor kinase 1 (Homo sapiens) (P25098 whole entry): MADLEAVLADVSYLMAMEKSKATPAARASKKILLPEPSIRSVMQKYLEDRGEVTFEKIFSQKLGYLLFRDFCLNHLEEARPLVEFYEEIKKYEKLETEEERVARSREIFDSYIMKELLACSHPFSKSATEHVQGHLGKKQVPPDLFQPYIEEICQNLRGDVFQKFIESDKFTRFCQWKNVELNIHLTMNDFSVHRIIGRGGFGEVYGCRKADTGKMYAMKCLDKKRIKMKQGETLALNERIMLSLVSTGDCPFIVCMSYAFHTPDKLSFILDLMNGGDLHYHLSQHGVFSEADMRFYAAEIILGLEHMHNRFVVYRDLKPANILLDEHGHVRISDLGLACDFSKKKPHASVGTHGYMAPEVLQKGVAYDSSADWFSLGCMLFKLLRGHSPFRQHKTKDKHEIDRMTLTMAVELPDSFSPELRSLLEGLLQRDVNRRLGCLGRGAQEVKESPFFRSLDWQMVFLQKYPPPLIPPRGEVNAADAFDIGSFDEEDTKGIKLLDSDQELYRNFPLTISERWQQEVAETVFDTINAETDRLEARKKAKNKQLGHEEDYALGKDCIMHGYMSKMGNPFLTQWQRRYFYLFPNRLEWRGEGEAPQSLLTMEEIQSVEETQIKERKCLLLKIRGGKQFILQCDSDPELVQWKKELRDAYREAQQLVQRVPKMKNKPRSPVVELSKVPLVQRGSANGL
Chain of Phosphatidylinositol 3-kinase C2 domain-containing subunit gamma (Homo sapiens) (O75747 whole entry, the tested form may be a part, canonical isoform): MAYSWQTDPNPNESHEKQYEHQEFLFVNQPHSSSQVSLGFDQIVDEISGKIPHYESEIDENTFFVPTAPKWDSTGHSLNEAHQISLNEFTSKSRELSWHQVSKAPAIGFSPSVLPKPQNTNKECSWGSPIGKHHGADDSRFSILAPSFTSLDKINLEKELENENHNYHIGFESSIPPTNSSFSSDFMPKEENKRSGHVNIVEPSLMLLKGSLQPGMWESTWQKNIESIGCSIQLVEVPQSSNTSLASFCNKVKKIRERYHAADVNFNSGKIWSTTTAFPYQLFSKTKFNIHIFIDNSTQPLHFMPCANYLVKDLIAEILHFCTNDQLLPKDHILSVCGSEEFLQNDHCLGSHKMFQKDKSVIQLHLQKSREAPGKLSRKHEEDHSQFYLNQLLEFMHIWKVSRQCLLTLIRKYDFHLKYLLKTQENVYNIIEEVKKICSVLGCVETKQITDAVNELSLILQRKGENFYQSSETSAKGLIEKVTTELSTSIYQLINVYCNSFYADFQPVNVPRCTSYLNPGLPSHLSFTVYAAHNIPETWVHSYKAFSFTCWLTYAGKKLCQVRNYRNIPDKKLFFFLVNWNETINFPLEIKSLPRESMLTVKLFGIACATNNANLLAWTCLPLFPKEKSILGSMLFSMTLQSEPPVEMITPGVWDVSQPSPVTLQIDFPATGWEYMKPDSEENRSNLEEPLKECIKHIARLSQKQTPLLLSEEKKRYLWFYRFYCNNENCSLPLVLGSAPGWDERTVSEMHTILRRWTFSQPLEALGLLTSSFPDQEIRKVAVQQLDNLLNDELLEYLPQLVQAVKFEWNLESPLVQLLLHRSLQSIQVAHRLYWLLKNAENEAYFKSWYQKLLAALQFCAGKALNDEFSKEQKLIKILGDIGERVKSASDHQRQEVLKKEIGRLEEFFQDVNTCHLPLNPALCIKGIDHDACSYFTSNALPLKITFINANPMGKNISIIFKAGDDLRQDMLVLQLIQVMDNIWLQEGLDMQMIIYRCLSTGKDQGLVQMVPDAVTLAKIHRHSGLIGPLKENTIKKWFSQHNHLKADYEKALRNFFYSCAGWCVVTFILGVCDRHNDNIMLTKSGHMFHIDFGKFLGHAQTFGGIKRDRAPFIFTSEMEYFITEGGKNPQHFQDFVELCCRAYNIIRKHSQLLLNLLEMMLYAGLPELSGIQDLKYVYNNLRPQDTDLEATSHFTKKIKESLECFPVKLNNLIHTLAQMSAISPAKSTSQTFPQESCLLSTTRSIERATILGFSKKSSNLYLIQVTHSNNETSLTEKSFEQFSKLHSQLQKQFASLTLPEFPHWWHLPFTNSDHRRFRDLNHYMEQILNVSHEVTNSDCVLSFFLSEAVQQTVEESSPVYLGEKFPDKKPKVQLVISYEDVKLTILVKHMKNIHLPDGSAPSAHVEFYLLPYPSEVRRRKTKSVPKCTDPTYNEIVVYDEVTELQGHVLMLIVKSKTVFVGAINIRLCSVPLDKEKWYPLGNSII
Chain of Delta-type opioid receptor (P41143 whole entry): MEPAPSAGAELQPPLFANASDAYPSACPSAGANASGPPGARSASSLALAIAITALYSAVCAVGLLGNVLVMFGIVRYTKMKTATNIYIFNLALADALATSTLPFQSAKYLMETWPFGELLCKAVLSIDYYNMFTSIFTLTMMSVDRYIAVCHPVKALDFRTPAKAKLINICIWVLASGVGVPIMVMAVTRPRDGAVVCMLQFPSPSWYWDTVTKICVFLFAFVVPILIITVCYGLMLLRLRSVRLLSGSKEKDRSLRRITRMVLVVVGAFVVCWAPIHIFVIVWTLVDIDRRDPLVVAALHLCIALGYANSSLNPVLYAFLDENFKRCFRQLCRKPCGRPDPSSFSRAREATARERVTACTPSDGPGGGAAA

How did the Kd [1] turn out when `Cc1cc(NC(=O)c2cccc(S(F)(F)(F)(F)F)c2)cc(-n2ccn3nc(-c4cccnc4)cc23)c1` [BAY-309] was run?
The Kd was 0.0021 µM (active).

What about the Ki [2] of the same compound?
Its Ki is 2.15 µM.

And the Ki [3]?
Its Ki is 4.86 µM.

And the Ki [4]?
Its Ki is 10 µM.

And the Ki [5]?
The Ki was 10 µM.

And the Ki [6]?
Its Ki is 6.99 µM.

What about the Ki [7] of the same compound?
The Ki was 1.73 µM.

What about the EC50 [8] of the same compound?
Its EC50 is 2.6 µM (not active).

What about the IC50 [8] of the same compound?
Its IC50 is 0.13 µM (not active).

What about the Kd [9] of the same compound?
The Kd was > 20 µM (not active).

What about the EC50 [10] of the same compound?
Its EC50 is 3.2 µM (not active).

What about the IC50 [10] of the same compound?
Its IC50 is > 10 µM (not active).

What about the residual activity [11, 36] of the same compound?
Its residual activity is 100%.

And the residual activity [12, 36]?
Its residual activity is 99.2%.

And the residual activity [13, 36]?
Its residual activity is 74.5%.

And the residual activity [14, 36]?
The residual activity was 91.3%.

And the residual activity [15, 36]?
Its residual activity is 100%.

And the residual activity [16, 36]?
Its residual activity is 100%.

And the residual activity [17, 36]?
Its residual activity is 100%.

What about the residual activity [18, 36] of the same compound?
Its residual activity is 75.2%.

And the residual activity [19, 36]?
The residual activity was 100%.

What about the residual activity [20] of the same compound?
Its residual activity is 34.2%.

And the residual activity [21, 36]?
Its residual activity is 100%.

What about the inhibition [22] of the same compound?
The inhibition was 60.4%.

What about the inhibition [23] of the same compound?
Its inhibition is 5.64%.

What about the inhibition [24] of the same compound?
The inhibition was 34.9%.

And the inhibition [25]?
Its inhibition is 33.3%.

Which results are given for `Cc1cc(C)c(-n2ccn3nc(-c4cccnc4)cc23)cc1NC(=O)c1cc(C#N)cc(S(F)(F)(F)(F)F)c1` [BAY-826]?
Ki ([26]; read-out: Ki): 7.1 µM; Ki ([26]; read-out: pKi (converted)): 6.68 µM; IC50 [27]: 0.00045 µM (active); Kd [28]: 1.6 µM (not active); IC50 [29]: > 10 µM (not active); IC50 [30]: > 20 µM (not active); IC50 [31]: 0.44 µM (not active); IC50 [32]: > 10 µM (not active); residual activity [11, 37]: 100%; residual activity [12, 37]: 68.3%; residual activity [13, 37]: 91.8%; residual activity [14, 37]: 67.9%; residual activity [15, 37]: 83.5%; residual activity [16, 37]: 92.5%; residual activity [17, 37]: 60.7%; residual activity [18, 37]: 83.6%; residual activity [19, 37]: 100%; residual activity [21, 37]: 99.5%; inhibition [22]: -7%; inhibition [33]: -5.85%; inhibition [34]: 25.3%; inhibition [35]: 11.9%

Source: ChEMBL document CHEMBL4507270 (2021)
